Laboratory results from patent US20240075160A1, “COMBINATION THERAPIES FOR TREATMENT OF CANCER” (MedImmune, LLC, priority 2022, published 2024).

How the values were obtained:
PC9-MART1-GFP cells = experiment: T cell mediated cytolysis in co-culture of MART-1 reactive CD8+ T cells and tumor cells (Incucyte, loss of GFP); format: cell-based; settings: single agent; bispecific 2 nM, ADC 0.05 μg/ml; E:T 4:1 or 5:1; five days after T cell addition
Experimental: A co-culture assay system was developed which utilized melanoma antigen Melan A (MART-1) reactive T cells and PC9 lung adenocarcinoma cells engineered to express both the MART-1 antigen and Green Fluorescent Protein (GFP). Tumor cell lysis was evaluated utilizing the Sartorius Incucyte Live Cell Analysis System whereby loss of GFP signal intensity was used as a surrogate marker for cell death. Briefly, PC9-MART1-GFP cells were harvested from cell culture flasks using trypsin, washed once with complete RPMI media as defined in Example 1, resuspended and added to each well of 96 well clear bottom, opaque walled optical plates for 24 hours at 37° C. in 5% CO2 as per the manufacturer's instructions. The PD-1-TIGIT (AZD2936), PD-1-TIM3 (AZD7789) or PD-1-CTLA4 (MEDI5752) bispecific antibodies were used at 2 nM concentration. The hRS7(TROP2)-TOP1i ADC was used at 0.05 μg/ml. Treatments were added alone or in combination to wells immediately before rested, antigen-specific CD8+ T cells were added at effector to target (E:T) ratios of 4:1 or 5:1 effector T cells to target tumor cells depending on the donor. Tumor cell death and percent cytolysis were measured five days after T cell addition by image analysis of GFP intensity per well. Data are from experiments with 3 unique donors. Statistical significance for the indicated comparisons is denoted as * p<0.05, ** p<0.01, p<0.001.

human IFN-7 = experiment: IFN-γ release in supernatants of co-culture of tumor cells and tumor reactive CD8+ T cells (Mesoscale ELISA); format: cell-based; settings: MART-1 reactive T cell-PC9 co-culture
Experimental: Antigen specific CD8+ T-cells secrete IFN-γ upon tumor antigen recognition. To evaluate the amount of IFN-7 detected within the supernatants of co-cultures containing PC9-MART1-GFP tumor cells and tumor reactive CD8+ T cells, separate parallel co-cultures were established in Nunc 96 well plates (Sigma Aldrich) alongside the Incucyte optical plates. For evaluation of IFN-7 release, supernatants were harvested from co-cultures in the Nunc 96 well plates 24, 72 and 144 hours later. IFN-7 was measured using Mesoscale Discovery multi-spot ELISA for human IFN-7 as per the manufacturer's instructions. […] For the MART-1 tumor antigen reactive T cell-PC9 lung adenocarcinoma co-culture, IFN-7 secretion by T cells was retained in the presence of the hRS7(TROP2)-TOP1i ADC alone, AZD2936 and MEDI5752 both alone and in combination with the ADC, FIG. 4C-4D. AZD7789 enhanced IFN-7, which was retained in combination with the hRS7(TROP2)-TOP1i ADC FIG. 4E.

[1] = agent alone, supernatants at 24, 72 and 144 hours
[2] = in combination with the hRS7(TROP2)-TOP1i ADC

Substance | T cell mediated cytolysis of PC9 tumor cells (PC9-MART1-GFP cells) | IFN-7 secretion by T cells (human IFN-7; [1]) | IFN-7 secretion by T cells (human IFN-7; [2])
AZD2936: PD-1-TIGIT bispecific antibody | enhanced | retained | retained
AZD7789: anti-TIM-3/PD-1 bispecific binding protein comprising sequences of monoclonal antibody 013-1 (TIM-3) and LO115 (PD-1) | enhanced | enhanced | retained
MEDI5752: anti-PD-1/CTLA-4 bispecific antibody | enhanced | retained | retained
